Assay results reported in US20260053932A1, “COMPOUNDS AND METHODS FOR THE TARGETED DEGRADATION OF ANDROGEN RECEPTOR AND ASSOCIATED METHODS OF USE” (Arvinas Operations, Inc., priority 2020, published 2026).

Test system: androgen receptor (AR) in LNCaP and/or VCaP cells
Assay: Androgen Receptor ELISA assay (AR degradation)
Type: cell-based
Conditions: LNCaP and/or VCaP cells; 5 hours incubation; media with R1881; read-out: DC50 Code* (degradation of AR ELISA)
Outline: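 VCaP cells grown ≥3 days, then treated 5 h with compound in media containing 1 nM R1881 (10× stock). Cells lysed and AR quantified by sandwich ELISA (mouse AR detection Ab, HRP anti-mouse, TMB). DC50 and Dmax derived from AR degradation.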

Compound | DC50
N#Cc1ccc(O[C@H]2CC[C@H](NC(=O)c3cnc(N4CCC(CN(CC5COC5)[C@H]5C[C@H](Oc6ccc7c(c6)C(=O)N(C6CCC(=O)NC6=O)C7)C5)CC4)cn3)CC2)cc1Cl (stereo partly shown) [Compound 48, N-((1r,4r)-4-(3-chloro-4-cyanophenoxy)cyclohexyl)-5-(4-((((1r,3r)-3-((2-(2,6-dioxopiperidin-3-yl)-3-oxoisoindolin-5-yl)oxy)cyclobutyl)(oxetan-3-ylmethyl)amino)methyl)piperidin-1-yl)pyrazine-2-carboxamide] | < 1 nM
N#Cc1ccc(O[C@H]2CC[C@H](NC(=O)c3ccc(N4CCC(CN5CCN(c6ccc7c(c6F)C(=O)N(C6CCC(=O)NC6=O)C7=O)CC5)CC4)nn3)CC2)cc1Cl (stereo partly shown) [Compound 49] | < 1 nM
CC(=O)N(CC1CCN(c2cnc(C(=O)N[C@H]3CC[C@H](Oc4cc(C)c(C#N)c(C)c4)CC3)cn2)CC1)[C@H]1C[C@H](Oc2ccc3c(c2)C(=O)N(C2CCC(=O)NC2=O)C3=O)C1 (stereo partly shown) [Compound 50, N-((1r,4r)-4-(4-cyano-3,5-dimethylphenoxy)cyclohexyl)-5-(4-((N-((1r,3r)-3-((2-(2,6-dioxopiperidin-3-yl)-1,3-dioxoisoindolin-5-yl)oxy)cyclobutyl)acetamido)methyl)piperidin-1-yl)pyrazine-2-carboxamide] | < 1 nM
CC(C)N(CC1CCN(c2cnc(C(=O)N[C@H]3CC[C@H](Oc4ccc(C#N)c(Cl)c4)CC3)cn2)CC1)[C@H]1C[C@H](Oc2ccc3c(c2F)C(=O)N(C2CCC(=O)NC2=O)C3=O)C1 (stereo partly shown) [Compound 52, N-((1r,4r)-4-(3-chloro-4-cyanophenoxy)cyclohexyl)-5-(4-((((1r,3r)-3-((2-(2,6-dioxopiperidin-3-yl)-4-fluoro-1,3-dioxoisoindolin-5-yl)oxy)cyclobutyl) (isopropyl)amino)methyl)piperidin-1-yl)pyrazine-2-carboxamide] | < 1 nM
N#Cc1ccc(O[C@H]2CC[C@H](NC(=O)c3cnc(N4CCC(CN(CC5COC5)[C@H]5C[C@H](Oc6ccc7c(c6)C(=O)N(C6CCC(=O)NC6=O)C7=O)C5)CC4)cn3)CC2)cc1Cl (stereo partly shown) [Compound 53, N-((1r,4r)-4-(3-chloro-4-cyanophenoxy)cyclohexyl)-5-(4-((((1r,3r)-3-((2-(2,6-dioxopiperidin-3-yl)-1,3-dioxoisoindolin-5-yl)oxy)cyclobutyl) (oxetan-3-ylmethyl)amino)methyl)piperidin-1-yl)pyrazine-2-carboxamide] | < 1 nM
COCC(C)N(CC1CCN(c2cnc(C(=O)N[C@H]3CC[C@H](Oc4ccc(C#N)c(Cl)c4)CC3)cn2)CC1)[C@H]1C[C@H](Oc2ccc3c(c2)C(=O)N(C2CCC(=O)NC2=O)C3=O)C1 (stereo partly shown) [Compound 55, N-((1r,4r)-4-(3-chloro-4-cyanophenoxy)cyclohexyl)-5-(4-((((1r,3r)-3-((2-(2,6-dioxopiperidin-3-yl)-1,3-dioxoisoindolin-5-yl)oxy)cyclobutyl)(1-methoxypropan-2-yl)amino)methyl)piperidin-1-yl)pyrazine-2-carboxamide] | < 1 nM
COc1cc(O[C@H]2CC[C@H](NC(=O)c3cnc(N4CC5(CC(CN(C(C)C)[C@H]6C[C@H](Oc7ccc8c(c7)C(=O)N(C7CCC(=O)NC7=O)C8=O)C6)C5)C4)cn3)CC2)ccc1C#N (stereo partly shown) [Compound 56, N-((1r,4r)-4-(4-cyano-3-methoxyphenoxy)cyclohexyl)-5-(6-((((1r,3r)-3-((2-(2,6-dioxopiperidin-3-yl)-1,3-dioxoisoindolin-5-yl)oxy)cyclobutyl) (isopropyl)amino)methyl)-2-azaspiro[3.3]heptan-2-yl)pyrazine-2-carboxamide] | < 1 nM
COc1cc(O[C@H]2CC[C@H](NC(=O)c3cnc(N4CC(CN(C(C)C)[C@H]5C[C@H](Oc6ccc7c(c6)C(=O)N(C6CCC(=O)NC6=O)C7=O)C5)C4)nc3)CC2)ccc1C#N (stereo partly shown) [Compound 57, N-((1r,4r)-4-(4-cyano-3-methoxyphenoxy)cyclohexyl)-2-(3-((((1r,3r)-3-((2-(2,6-dioxopiperidin-3-yl)-1,3-dioxoisoindolin-5-yl)oxy)cyclobutyl) (isopropyl)amino)methyl)azetidin-1-yl)pyrimidine-5-carboxamide] | < 1 nM
COCCN(CC1CCN(c2cnc(C(=O)N[C@H]3CC[C@H](Oc4ccc(C#N)c(Cl)c4)CC3)cn2)CC1)[C@H]1C[C@H](Oc2ccc3c(c2)C(=O)N(C2CCC(=O)NC2=O)C3=O)C1 (stereo partly shown) [Compound 58, N-((1r,4r)-4-(3-chloro-4-cyanophenoxy)cyclohexyl)-5-(4-((((1r,3r)-3-((2-(2,6-dioxopiperidin-3-yl)-1,3-dioxoisoindolin-5-yl)oxy)cyclobutyl)(2-methoxyethyl)amino)methyl)piperidin-1-yl)pyrazine-2-carboxamide] | < 1 nM
CC(C)N(CC1CCN(c2ncc(C(=O)NC3CCC(Oc4ccc(C#N)c(Cl)c4)CC3)cn2)CC1)C1CCC(Oc2ccc3c(c2)C(=O)N(C2CCC(=O)NC2=O)C3=O)CC1 (stereo not shown) [Compound 59, N-((1r,4r)-4-(3-chloro-4-cyanophenoxy)cyclohexyl)-2-(4-((((1r,4r)-4-((2-(2,6-dioxopiperidin-3-yl)-1,3-dioxoisoindolin-5-yl)oxy)cyclohexyl) (isopropyl)amino)methyl)piperidin-1-yl)pyrimidine-5-carboxamide] | < 1 nM
CC(C)N(CC1CCN(c2ncc(C(=O)N[C@H]3CC[C@H](Oc4ccc(C#N)c(Cl)c4)CC3)cn2)CC1)[C@H]1C[C@H](Oc2ccc3c(c2)C(=O)N(C2CCC(=O)NC2=O)C3)C1 (stereo partly shown) [Compound 60, N-((1r,4r)-4-(3-chloro-4-cyanophenoxy)cyclohexyl)-2-(4-((((1r,3r)-3-((2-(2,6-dioxopiperidin-3-yl)-3-oxoisoindolin-5-yl)oxy)cyclobutyl) (isopropyl)amino)methyl)piperidin-1-yl)pyrimidine-5-carboxamide] | < 1 nM
N#Cc1ccc(O[C@H]2CC[C@H](NC(=O)c3cnc(N4CCC(CN(C5COC5)[C@H]5C[C@H](Oc6ccc7c(c6)C(=O)N(C6CCC(=O)NC6=O)C7=O)C5)CC4)cn3)CC2)cc1Cl (stereo partly shown) [Compound 61, N-((1r,4r)-4-(3-chloro-4-cyanophenoxy)cyclohexyl)-5-(4-((((1r,3r)-3-((2-(2,6-dioxopiperidin-3-yl)-1,3-dioxoisoindolin-5-yl)oxy)cyclobutyl) (oxetan-3-yl)amino)methyl)piperidin-1-yl)pyrazine-2-carboxamide] | < 1 nM
N#Cc1ccc(O[C@H]2CC[C@H](NC(=O)c3cnc(N4CCC(CN(C5CCOC5)[C@H]5C[C@H](Oc6ccc7c(c6)C(=O)N(C6CCC(=O)NC6=O)C7=O)C5)CC4)cn3)CC2)cc1Cl (stereo partly shown) [Compound 62, N-((1r,4r)-4-(3-chloro-4-cyanophenoxy)cyclohexyl)-5-(4-((((1r,3r)-3-((2-(2,6-dioxopiperidin-3-yl)-1,3-dioxoisoindolin-5-yl)oxy)cyclobutyl) (tetrahydrofuran-3-yl)amino)methyl)piperidin-1-yl)pyrazine-2-carboxamide] | < 1 nM
COc1cc(O[C@H]2CC[C@H](NC(=O)c3cnc(N4CCC(CN(C(C)C)[C@H]5C[C@H](Oc6ccc7c(c6)C(=O)N(C6CCC(=O)NC6=O)C7)C5)CC4)nc3)CC2)ccc1C#N (stereo partly shown) [Compound 63, N-((1r,4r)-4-(4-cyano-3-methoxyphenoxy)cyclohexyl)-2-(4-((((1r,3r)-3-((2-(2,6-dioxopiperidin-3-yl)-3-oxoisoindolin-5-yl)oxy)cyclobutyl) (isopropyl)amino)methyl)piperidin-1-yl)pyrimidine-5-carboxamide] | < 1 nM
CCOc1cc(O[C@H]2CC[C@H](NC(=O)c3cnc(N4CCC(CN(C(C)C)[C@H]5C[C@H](Oc6ccc7c(c6)C(=O)N(C6CCC(=O)NC6=O)C7=O)C5)CC4)cn3)CC2)ccc1C#N (stereo partly shown) [Compound 64, N-((1r,4r)-4-(4-cyano-3-ethoxyphenoxy)cyclohexyl)-5-(4-((((1r,3r)-3-((2-(2,6-dioxopiperidin-3-yl)-1,3-dioxoisoindolin-5-yl)oxy)cyclobutyl) (isopropyl)amino)methyl)piperidin-1-yl)pyrazine-2-carboxamide] | < 1 nM
CC(C)N(CC1CCN(c2cnc(C(=O)N[C@H]3CC[C@H](Oc4ccc(C#N)c(Cl)c4)CC3)cn2)CC1)[C@H]1C[C@H](Oc2ccc3c(c2)C2(CC2)N(C2CCC(=O)NC2=O)C3=O)C1 (stereo partly shown) [Compound 65, N-((1r,4r)-4-(3-chloro-4-cyanophenoxy)cyclohexyl)-5-(4-((((1r,3r)-3-((2′-(2,6-dioxopiperidin-3-yl)-3′-oxospiro[cyclopropane-1,1′-isoindolin]-6′-yl)oxy)cyclobutyl) (isopropyl)amino)methyl)piperidin-1-yl)pyrazine-2-carboxamide] | < 1 nM
CC(C)N(CC1CN(c2ncc(C(=O)N[C@H]3CC[C@H](Oc4ccc(C#N)c(Cl)c4)CC3)cn2)C1)[C@H]1C[C@H](Oc2ccc3c(c2)C(=O)N(C2CCC(=O)NC2=O)C3=O)C1 (stereo partly shown) [Compound 66, N-((1r,4r)-4-(3-chloro-4-cyanophenoxy)cyclohexyl)-2-(3-((((1r,3r)-3-((2-(2,6-dioxopiperidin-3-yl)-1,3-dioxoisoindolin-5-yl)oxy)cyclobutyl) (isopropyl)amino)methyl)azetidin-1-yl)pyrimidine-5-carboxamide] | < 1 nM
COCCN(CC1CCN(c2cnc(C(=O)N[C@H]3CC[C@H](Oc4ccc(C#N)c(OC)c4)CC3)cn2)CC1)[C@H]1C[C@H](Oc2ccc3c(c2)C(=O)N(C2CCC(=O)NC2=O)C3=O)C1 (stereo partly shown) [Compound 68, N-((1r,4r)-4-(4-cyano-3-methoxyphenoxy)cyclohexyl)-5-(4-((((1r,3r)-3-((2-(2,6-dioxopiperidin-3-yl)-1,3-dioxoisoindolin-5-yl)oxy)cyclobutyl)(2-methoxyethyl)amino)methyl)piperidin-1-yl)pyrazine-2-carboxamide] | < 1 nM
CC1(N2C(=O)c3cc(F)c(N4CCN(CC5CCN(c6ccc(C(=O)N[C@H]7CC[C@H](Oc8ccc(C#N)c(Cl)c8)CC7)nn6)CC5)CC4)cc3C2=O)CCC(=O)NC1=O (stereo partly shown) [Compound 69, N-((1r,4r)-4-(3-chloro-4-cyanophenoxy)cyclohexyl)-6-(4-((4-(6-fluoro-2-(3-methyl-2,6-dioxopiperidin-3-yl)-1,3-dioxoisoindolin-5-yl)piperazin-1-yl)methyl)piperidin-1-yl)pyridazine-3-carboxamide] | < 1 nM
